According to US8415469B2, “Compounds and methods for kinase modulation, and indications therefor” (Plexxikon Inc., priority 2005, dated 2013):

Key:
Assay type in all cases: biochemical
[1] = target: T1, Kit (Homo sapiens, UniProt P10721); assay: AlphaScreen kinase assay, Kit; settings: read-out: IC50, activity toward kinase Kit
T1 construct: P1332.N6 BI PTP KIT M552-K948-X COD; His6 (N); made in house; host or cells: E. coli (PTP1B co-expressed)

[2] = target: T2, Fms (Homo sapiens, UniProt P07333); assay: AlphaScreen kinase assay, Fms; settings: read-out: IC50, activity toward kinase Fms
T2 construct: purchased Upstate Biotechnology
T2 sequence (P07333 20-972): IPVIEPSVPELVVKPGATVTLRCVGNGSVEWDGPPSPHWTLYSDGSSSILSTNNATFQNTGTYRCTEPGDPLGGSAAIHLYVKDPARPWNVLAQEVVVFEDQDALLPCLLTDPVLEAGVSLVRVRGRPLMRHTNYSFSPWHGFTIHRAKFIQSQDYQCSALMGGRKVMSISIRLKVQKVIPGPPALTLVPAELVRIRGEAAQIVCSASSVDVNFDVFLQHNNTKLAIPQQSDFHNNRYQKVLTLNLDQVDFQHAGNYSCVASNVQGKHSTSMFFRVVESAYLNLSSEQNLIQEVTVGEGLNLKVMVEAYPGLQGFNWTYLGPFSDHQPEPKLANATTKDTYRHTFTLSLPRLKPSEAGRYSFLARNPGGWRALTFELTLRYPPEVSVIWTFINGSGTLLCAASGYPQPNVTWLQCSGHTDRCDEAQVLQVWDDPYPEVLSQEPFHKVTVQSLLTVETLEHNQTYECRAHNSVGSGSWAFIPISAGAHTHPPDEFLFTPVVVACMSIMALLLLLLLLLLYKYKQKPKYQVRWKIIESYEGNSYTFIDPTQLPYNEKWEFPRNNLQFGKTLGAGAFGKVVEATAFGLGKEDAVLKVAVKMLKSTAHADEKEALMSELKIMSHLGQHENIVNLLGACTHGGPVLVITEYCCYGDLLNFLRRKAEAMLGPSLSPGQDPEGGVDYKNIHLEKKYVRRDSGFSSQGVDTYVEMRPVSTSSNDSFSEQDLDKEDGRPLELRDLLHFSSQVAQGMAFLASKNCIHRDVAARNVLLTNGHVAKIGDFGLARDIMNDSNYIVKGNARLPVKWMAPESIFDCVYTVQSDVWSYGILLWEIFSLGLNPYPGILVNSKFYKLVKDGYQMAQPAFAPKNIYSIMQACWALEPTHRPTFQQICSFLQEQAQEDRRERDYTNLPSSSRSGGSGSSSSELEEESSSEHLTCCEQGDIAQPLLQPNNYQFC

[3] = target: T3, FGFR1 (Homo sapiens, UniProt P11362, C488A/C584S); assay: AlphaScreen kinase assay, FGFR1; settings: read-out: IC50, activity toward kinase FGFR
T3 construct: P1351.pET N6 BI-PTP FGFR A458-E765-X C488A, C584S; made in house; host or cells: E. coli (PTP1B co-expressed)
T3 sequence (P11362 458-765 C488A/C584S): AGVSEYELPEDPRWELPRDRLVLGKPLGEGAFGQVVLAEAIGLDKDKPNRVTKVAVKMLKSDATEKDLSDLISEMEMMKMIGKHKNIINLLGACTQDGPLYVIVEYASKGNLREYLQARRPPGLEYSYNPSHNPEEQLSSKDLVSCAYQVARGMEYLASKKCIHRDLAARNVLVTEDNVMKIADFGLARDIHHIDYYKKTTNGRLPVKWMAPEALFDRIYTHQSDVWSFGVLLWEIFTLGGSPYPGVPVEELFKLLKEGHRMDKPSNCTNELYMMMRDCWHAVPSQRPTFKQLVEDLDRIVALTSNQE
From the text: AlphaScreen assay was used to screen additional kinases. The assay is similarly dependent on the phosphorylation of a peptide substrate. In this assay, an antibody that recognizes phosphorylated substrate is bound to an acceptor bead. The peptide substrate is attached to biotin, which binds to a donor head that contains streptavidin. Thus phosphorylated substrate is bound by antibody and streptavidin, bringing the donor and acceptor heads into close proximity when kinase is not inhibited. The donor produces singlet oxygen which results in emission from the acceptor when they are in close proximity. Conversely, when kinase is inhibited, the donor and acceptor beads are not associated and the emission from the acceptor is reduced.
AlphaScreen assays were done using compounds dissolved in DMSO to a concentration of 20 mM. The compounds were diluted accordingly to the desired final concentrations in each sample well, using 1:3 serial dilution for a total of 8 concentration points. Plates were prepared such that each kinase reaction is 20 μl in 1× kinase buffer, 5% DMSO and 10 μM ATP. After incubation of the kinase reaction for 1 hour at room temperature, 5 μl of donor beads in stop buffer (50 mM EDTA in 1× kinase buffer) was added, the sample was mixed and incubated for 20 minutes at room temperature before adding 5 μl of acceptor beads in stop buffer. The samples were incubated for 60 minutes at room temperature and the signal per well was read on AlphaQuest reader.

[4] = target: T4, B-Raf V600E (Homo sapiens, UniProt P15056, V600E); assay: AlphaScreen kinase assay, B-Raf V600E; settings: read-out: IC50, activity toward kinase B-Raf V600E
T4 construct: P4254. pFastBacBD-CDC37 BRAF D437-K722-X, V600E; His6 with pFastBac HT leader (TEV site) (N); made in house; host or cells: Sf9 (baculovirus; chaperone CDC37 co-expressed)
T4 sequence (P15056 with tags, fused parts or gaps V600E): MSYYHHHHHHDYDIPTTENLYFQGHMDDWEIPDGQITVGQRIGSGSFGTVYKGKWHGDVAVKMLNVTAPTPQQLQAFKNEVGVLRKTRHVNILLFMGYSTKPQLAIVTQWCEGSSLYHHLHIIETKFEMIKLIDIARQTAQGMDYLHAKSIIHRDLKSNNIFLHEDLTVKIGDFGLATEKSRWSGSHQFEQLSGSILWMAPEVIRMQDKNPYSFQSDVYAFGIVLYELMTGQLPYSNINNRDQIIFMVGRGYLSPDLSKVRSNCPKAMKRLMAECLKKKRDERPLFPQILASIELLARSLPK

T1 sequence (P10721 with tags, fused parts or gaps): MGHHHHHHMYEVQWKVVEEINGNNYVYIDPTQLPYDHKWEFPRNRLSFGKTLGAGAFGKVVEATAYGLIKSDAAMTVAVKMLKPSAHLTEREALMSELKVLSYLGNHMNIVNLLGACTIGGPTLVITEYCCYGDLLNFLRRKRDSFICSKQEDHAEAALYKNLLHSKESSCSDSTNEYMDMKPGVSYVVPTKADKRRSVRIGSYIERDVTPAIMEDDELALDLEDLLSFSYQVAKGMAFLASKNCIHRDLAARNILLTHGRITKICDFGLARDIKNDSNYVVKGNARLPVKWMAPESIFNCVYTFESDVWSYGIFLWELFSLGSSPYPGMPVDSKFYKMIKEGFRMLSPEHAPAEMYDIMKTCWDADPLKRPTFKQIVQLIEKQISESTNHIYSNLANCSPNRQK

SMILES	IC50 [1]	IC50 [2]	IC50 [3]	further results
COc1cccc(Cc2c[nH]c3ncc(-c4ccccc4)cc23)c1 [Compound P-1084]	≤ 10 µM	–	–	–
COC(c1c(F)ccc(NC(=O)Nc2ccc(F)cc2)c1F)c1c[nH]c2ncc(Cl)cc12 (stereo not drawn) [Compound P-1653]	–	≤ 10 µM	–	–
O=C(c1ccccc1OCc1ccccc1)c1c[nH]c2ncc(Br)cc12 [Compound P-1382]	≤ 10 µM	–	≤ 10 µM	–
Cn1cnnc1-c1cccc(Nc2c[nH]c3ncccc23)c1 [Compound P-1504, [3-(4-Methyl-4H-[1,2,4]triazol-3-yl)-phenyl]-(1H-pyrrolo[2,3-b]pyridin-3-yl)-amine]	–	≤ 10 µM	–	–
O=C(NCC1CC1)Nc1ccc(F)c(Cc2c[nH]c3ncc(Cl)cc23)c1F [Compound P-1652, 1-[3-(5-Chloro-1H-pyrrolo[2,3-b]pyridin-3-ylmethyl)-2,4-difluoro-phenyl]-3-cyclopropylmethyl-urea]	–	≤ 10 µM	–	–
O=C(c1cccc(C(F)(F)F)c1)c1c[nH]c2ncc(-c3ccccc3)cc12 [Compound P-1405, (5-Phenyl-1H-pyrrolo[2,3-b]pyridin-3-yl)-(3-trifluoromethyl-phenyl)-methanone]	–	≤ 10 µM	–	–
OC(c1cccc(OC(F)F)c1)c1c[nH]c2ncc(Br)cc12 (stereo not drawn) [Compound P-1511]	–	≤ 10 µM	–	–
O=C(c1ccc2nsnc2c1)c1c[nH]c2ncc(-c3cccnc3)cc12 [Compound P-0905]	≤ 10 µM	–	–	IC50 [4]: ≤ 10 µM
COc1cccc(CCc2c[nH]c3ncccc23)c1 [Compound P-0450]	≤ 10 µM	–	–	–
COC(=O)c1cnc2[nH]ccc2c1 [Compound P-1543]	≤ 10 µM	–	–	–
c1ccc(Sc2c[nH]c3ncccc23)cc1 [Compound P-0626]	≤ 10 µM	–	–	–
O=C(c1cc(OC(F)F)cc(OC(F)F)c1)c1c[nH]c2ncc(-c3ccccc3)cc12 [Compound P-1521, (3,5-Bis-difluoromethoxy-phenyl)-(5-phenyl-1H-pyrrolo[2,3-b]pyridin-3-yl)-methanone]	≤ 10 µM	–	–	–
Clc1ccc(-c2cnc3[nH]ccc3c2)cc1 [Compound P-0815]	≤ 10 µM	–	–	–
O=C(c1cccc(OC(F)F)c1)c1c[nH]c2ncc(Br)cc12 [Compound P-1514, (5-Bromo-1H-pyrrolo[2,3-b]pyridin-3-yl)-(3-difluoromethoxy-phenyl)-methanone]	≤ 10 µM	–	–	–
O=C(c1ccc(Cl)nc1)c1c[nH]c2ncc(Br)cc12 [Compound P-0499]	≤ 10 µM	–	–	–
Cc1ccc(Cc2c[nH]c3ncccc23)cc1 [Compound P-0346]	≤ 10 µM	–	≤ 10 µM	–
FC(F)Oc1cc(Cc2c[nH]c3ncc(Br)cc23)cc(OC(F)F)c1 [Compound P-1538, 3-(3,5-Bis-difluoromethoxy-benzyl)-5-bromo-1H-pyrrolo[2,3-b]pyridine]	≤ 10 µM	–	≤ 10 µM	–
O=C(c1ccc2c(c1)OC(F)(F)O2)c1c[nH]c2ncc(-c3cccnc3)cc12 [Compound P-1558, (2,2-Difluoro-benzo[1,3]dioxol-5-yl)-(5-pyridin-3-yl-1H-pyrrolo[2,3-b]pyridin-3-yl)-methanone]	–	≤ 10 µM	–	IC50 [4]: ≤ 10 µM
O=C(c1cccc(OC(F)(F)F)c1)c1c[nH]c2ncc(-c3ccccc3)cc12 [Compound P-1408, (5-Phenyl-1H-pyrrolo[2,3-b]pyridin-3-yl)-(3-trifluoromethoxy-phenyl)-methanone]	≤ 10 µM	–	–	–
Clc1ccc(Cc2c[nH]c3nccc(Br)c23)cn1 [Compound P-0447]	≤ 10 µM	–	≤ 10 µM	IC50 [4]: ≤ 10 µM
CCCS(=O)(=O)Nc1ccc(F)c(C(OC)c2c[nH]c3ncc(Br)cc23)c1F (stereo not drawn) [Compound P-1275]	≤ 10 µM	–	–	–
COc1ccc(C(=O)c2c[nH]c3ncc(Br)cc23)c(F)c1 [Compound P-1320]	≤ 10 µM	–	–	–
COc1cccc(CCc2c[nH]c3ncc(-c4ccsc4)cc23)c1 [Compound P-0519]	≤ 10 µM	–	–	–
COc1cccc(Cc2c[nH]c3ncc(-c4cccc(Cl)c4)cc23)c1F [Compound P-1326, 5-(3-Chloro-phenyl)-3-(2-fluoro-3-methoxy-benzyl)-1H-pyrrolo[2,3-b]pyridine]	–	≤ 10 µM	≤ 10 µM	–
COc1cccc(C(=O)c2c[nH]c3ncc(-c4cccc(Cl)c4)cc23)c1F [Compound P-1332, [5-(3-Chloro-phenyl)-1H-pyrrolo[2,3-b]pyridin-3-yl]-(2-fluoro-3-methoxy-phenyl)-methanone]	–	≤ 10 µM	≤ 10 µM	–
COc1cccc(Cc2c[nH]c3ncc(-c4cccc(F)c4)cc23)c1F [Compound P-1327, 3-(2-Fluoro-3-methoxy-benzyl)-5-(3-fluoro-phenyl)-1H-pyrrolo[2,3-b]pyridine]	–	≤ 10 µM	≤ 10 µM	–

SMILES	IC50 [1]	IC50 [2]	IC50 [3]	further results
O=C(c1ccc(Cl)cc1Cl)c1c[nH]c2ncc(Br)cc12 [Compound P-1565]	≤ 10 µM	–	–	–
O=[N+]([O-])c1ccc(Sc2c[nH]c3ncc(Cl)cc23)nc1 [Compound P-1562]	≤ 10 µM	–	–	–
CN(c1ccc(Cl)c(Cl)c1)c1c[nH]c2ncccc12 [Compound P-1494, (3,4-Dichloro-phenyl)-methyl-(1H-pyrrolo[2,3-b]pyridin-3-yl)-amine]	–	≤ 10 µM	–	–
COc1ccc(Sc2c[nH]c3ncc(Cl)cc23)nc1 [Compound P-1574]	≤ 10 µM	–	–	–
O=C(NCc1ccc(F)cc1)Nc1ccc(F)c(Cc2c[nH]c3ncc(Cl)cc23)c1F [Compound P-1654, 1-[3-(5-Chloro-1H-pyrrolo[2,3-b]pyridin-3-ylmethyl)-2,4-difluoro-phenyl]-3-(4-fluoro-benzyl)-urea]	–	≤ 10 µM	–	–
O=C(c1cc(F)cc(C(F)(F)F)c1)c1c[nH]c2ncc(-c3ccccc3)cc12 [Compound P-1407, (3-Fluoro-5-trifluoromethyl-phenyl)-(5-phenyl-1H-pyrrolo[2,3-b]pyridin-3-yl)-methanone]	≤ 10 µM	–	≤ 10 µM	–
COc1cccc(Cc2c[nH]c3ncc(-c4ccc(Cl)s4)cc23)c1 [Compound P-0658]	≤ 10 µM	–	≤ 10 µM	–
OCCOc1cccc(Cc2c[nH]c3ncccc23)c1 [Compound P-0411]	≤ 10 µM	–	≤ 10 µM	–
COc1nc(NCc2ccc(C(F)(F)F)cc2)ccc1Cc1c[nH]c2ncccc12 [Compound P-1124]	–	≤ 10 µM	–	–
CC(=O)Nc1cccc(-c2cnc3[nH]cc(C(=O)c4cc(F)cc(C(F)(F)F)c4)c3c2)c1 [Compound P-1421, N-{3-[3-(3-Fluoro-5-trifluoromethyl-benzoyl)-1H-pyrrolo[2,3-b]pyridin-5-yl]-phenyl}-acetamide]	–	≤ 10 µM	–	–
O=C(Nc1ccc(F)cc1)Nc1ccc(F)c(Cc2c[nH]c3ncc(Cl)cc23)c1F [Compound P-1657, 1-[3-(5-Chloro-1H-pyrrolo[2,3-b]pyridin-3-ylmethyl)-2,4-difluoro-phenyl]-3-(4-fluoro-phenyl)-urea]	–	≤ 10 µM	–	–
COc1cccc(Cc2c[nH]c3ncccc23)c1 [Compound P-0239]	–	≤ 10 µM	–	–
O=[N+]([O-])c1c[nH]c2nccc(Cl)c12 [Compound P-1096]	≤ 10 µM	–	–	–
OC(c1ccc2c(c1)OC(F)(F)O2)c1c[nH]c2ncc(Br)cc12 (stereo not drawn) [Compound P-1550]	≤ 10 µM	–	≤ 10 µM	IC50 [4]: ≤ 10 µM
CN(C)c1ccc(Cc2c[nH]c3ncccc23)cn1 [Compound P-0935]	≤ 10 µM	–	≤ 10 µM	–
COc1cccc(C(=O)c2c[nH]c3ncc(Nc4ccccc4)cc23)c1 [Compound P-1120]	–	–	≤ 10 µM	IC50 [4]: ≤ 10 µM
CC(C)(C)Oc1ccc(Cc2c[nH]c3ncccc23)cn1 [Compound P-0819]	–	–	≤ 10 µM	IC50 [4]: ≤ 10 µM
O=C(c1ccc2c(c1)OC(F)(F)O2)c1c[nH]c2ncc(Br)cc12 [Compound P-1551, (5-Bromo-1H-pyrrolo[2,3-b]pyridin-3-yl)-(2,2-difluoro-benzo[1,3]dioxol-5-yl)-methanone]	≤ 10 µM	–	–	–
c1ccc(Nc2cnc3[nH]ccc3c2)cc1 [Compound P-0384]	≤ 10 µM	–	–	–
CS(=O)(=O)Nc1cccc(-c2cnc3[nH]cc(C(=O)c4cccc5c4OC(F)(F)O5)c3c2)c1 [Compound P-1516, N-{3-[3-(2,2-Difluoro-benzo[1,3]dioxole-4-carbonyl)-1H-pyrrolo[2,3-b]pyridin-5-yl]-phenyl}-methanesulfonamide]	–	–	≤ 10 µM	IC50 [4]: ≤ 10 µM
COCCNC(=O)Nc1cccc(C(=O)c2c[nH]c3ncccc23)c1 [Compound P-1761, 1-(2-Methoxy-ethyl)-3-[3-(1H-pyrrolo[2,3-b]pyridine-3-carbonyl)-phenyl]urea]	–	≤ 10 µM	–	–
CCOc1cccc(Cc2c[nH]c3ncccc23)c1 [Compound P-0459]	≤ 10 µM	–	≤ 10 µM	–
OC(c1ccc(NCc2ccc(C(F)(F)F)cc2)nc1)c1c[nH]c2ncccc12 (stereo not drawn) [Compound P-0291]	–	≤ 10 µM	–	–
COc1cccc(Cc2c[nH]c3ncc(-c4ccc(C(F)(F)F)cc4)cc23)c1F [Compound P-1324, 3-(2-Fluoro-3-methoxy-benzyl)-5-(4-trifluoromethyl-phenyl)-1H-pyrrolo[2,3-b]pyridine]	–	≤ 10 µM	–	–
CCCCOc1ccc(NC(=O)Nc2cccc(C(=O)c3c[nH]c4ncc(-c5ccc(F)cc5)cc34)c2)cc1 [Compound P-1754, 1-(4-Butoxy-phenyl)-3-{3-[5-(4-fluoro-phenyl)-1H-pyrrolo[2,3-b]pyridine-3-carbonyl]-phenyl}-urea]	–	≤ 10 µM	–	–
OCc1cccc(-c2c(CNCC(O)c3ccc(O)cc3)[nH]c3ncccc23)c1 (stereo not drawn) [Compound P-0554]	≤ 10 µM	–	–	–
